In patent US11058699B2, “Method and compositions for inhibition of double stranded DNA viruses” (WISCONSIN ALUMNI RESEARCH FOUNDATION, priority 2008, dated 2021):
Entries after “also recorded” stand apart in the source; their conditions may differ.

Experiments:
[1] = system: HaCaT cells; experiment: CellTiter-Glo Luminescent cell viability assay in HaCaT cells; details: 3 μM, 48 hours
Method: The reporter RL activity (FIG. 1A) and cell viability (FIG. 1B) were measured by Renilla Luciferase Assay System (Promega) and CellTiter-Glo Luminescent cell viability assay (Promega), respectively. Human keratinocyte HaCaT cells were inoculated with HPV16 LCR-driven RL containing pseudovirions hpv16wpA-RL after 4 hours of pre-treatment with 3 μM of each compound, and reporter expression/cell viability were scored 48 hours later. The expression value is shown as viability to untreated cells with hpv16wpA-RL.

[2] = system: HPV pseudovirions hpvSEAP; experiment: hpvSEAP pseudovirion infectivity assay (SEAP) in 293T cells; type: cell-based, HPV16
Method: FIG. 6. Early M phase arrest by CDK1 inhibition interferes with HPV infection. (FIG. 6A) 293T cells were treated with a CDK1 inhibitor, purvalanol A (3, 6, and 12 μM) and infected with hpvSEAP. […] The columns represent the mean, the bars represent the standard deviation. (FIG. 6B) Cell cycle arrest at M phase by purvalanol A (12 μM) is shown. Histograms indicate the cell cycle status of DMSO and purvalanol A-treated cells, respectively.
Cell cycle inhibitors block HPV infection. To identify mechanistic pathways and informative modulators of HPV infection, we tested nearly 5,000 compounds in known bioactive molecule libraries Prestwick (Prestwick Chemicals) and LOPAC (Library of Pharmacologically Active Compounds, Sigma), with HPV pseudovirions containing an SV40 promoter-driven secreted alkaline phosphatase (SEAP) reporter gene (hpvSEAP). […] Total RNA was extracted after 48 hours, and expression levels of HPV16 E1 ^E4 RNA transcripts were measured by qRT-PCR using E7, E2, and E5 sequence specific primers.
High throughput screening.
Infectivity assay. […] Infectivity of wild type HPV16 virions was examined by quantitative reverse transcriptase PCR (qRT-PCR) by amplifying viral mRNA signals from HPV16-treated 293TT cells. 293TT cells were infected with 50-100 vge/cell of packaged virus and incubated for 48 hours at 37° C.

[3] = system: influenza virus vector expressing RL; type: cell-based
[4] = system: hpv16wpA-RL; type: cell-based, HPV16; details: 293T cells, 24 hour synchronization with aphidicolin, 4 hour treatment 3 μM, 48 hours
[5] = system: wild type HPV16; experiment: Wild type HPV16 infection of 293T cells, early gene expression by qRT-PCR; type: cell-based; details: 4 hours pre-treatment with 3 μM, 48 hours, compared with neutralizing antibody H16.7E
[6] = system: β-actin expression; experiment: Cellular β-actin expression by qRT-PCR in 293T cells; type: cell-based, human; details: 3 μM, 48 hours
[7] = 293 cells, HPV16 pseudoviruses expressing SEAP or Renilla luciferase, or intact infectious HPV16 (early gene expression)

Row | Structure (SMILES) | effect on cell viability [1] | inhibition of HPV infection ([2]; 293T cells, 12 μM, hpvSEAP, 48 hours) | inhibition of HPV infection, dose dependence ([2]; 293T cells, 3, 6 and 12 μM, SEAP after 48 hours) | inhibition of HPV infection [2, 7] | influenza infection (RL activity) [3] | HPV infection (RL activity) [4] | HPV16 gene expression (wild type HPV16 virion infection) [5] | cellular β-actin expression [6] | inhibition of HPV infection ([2]; 293 cells, HPV16 pseudoviruses expressing SEAP or Renilla luciferase, or intact infectious HPV16 (early gene expression), listed as etopside)
1 | O=c1[nH]cc(F)c(=O)[nH]1 [5-fluorouracil] | did not have any effect | – | – | – | – | – | – | – | –
2 | CC(C)[C@H](CO)Nc1nc(Nc2cccc(Cl)c2)c2ncn(C(C)C)c2n1 [Purvalanol A, purvalanol A] | – | about 5 fold | inhibited HPV infection dose-specifically | – | – | – | – | – | –
3 | C[C@@]1(CO)[C@H](O)CC[C@@]2(C)[C@H]1CC[C@H]1C[C@@H]3C[C@@]12CC[C@]3(O)CO [aphidicolin] | – | – | – | significantly and consistently inhibit; also recorded: most significant and consistent inhibition | did not significantly affect | efficiently blocked | blocked HPV16 gene expression even more efficiently than a neutralizing antibody | no effect; also recorded: not affected | –
4 | COc1cc([C@@H]2c3cc4c(cc3[C@@H](O[C@@H]3O[C@@H]5CO[C@@H](C)O[C@H]5[C@H](O)[C@H]3O)[C@H]3COC(=O)[C@H]23)OCO4)cc(OC)c1O [etoposide] | – | – | – | most significant and consistent inhibition | did not significantly affect | efficiently blocked | blocked HPV16 gene expression even more efficiently than a neutralizing antibody | no effect; also recorded: not affected | significantly and consistently inhibit
